# Results as given in ChEMBL document CHEMBL1932973, “5- and 6-membered (thio)lactones are prodrug type carbonic anhydrase inhibitors” (Bioorg Med Chem Lett, 2012).
# Legend:
# Carbonic anhydrase 2 [1] = target: T1, Carbonic anhydrase 2 (Homo sapiens, UniProt P00918); assay: Inhibition of human CA2 pre-incubated for 15 mins to 24 hrs measured after 6 hrs by phenol red-based stopped-flow CO2 hydrase assay
# Carbonic anhydrase 9 [2] = target: T2, Carbonic anhydrase 9 (Homo sapiens, UniProt Q16790); assay: Inhibition of human CA9 pre-incubated for 15 mins to 24 hrs measured after 6 hrs by phenol red-based stopped-flow CO2 hydrase assay
# Carbonic anhydrase 1 [3] = target: T3, Carbonic anhydrase 1 (Homo sapiens, UniProt P00915); assay: Inhibition of human CA1 pre-incubated for 15 mins to 24 hrs measured after 15 mins by phenol red-based stopped-flow CO2 hydrase assay
# Carbonic anhydrase 2 [4] = target: T1, Carbonic anhydrase 2; assay: Inhibition of human CA2 pre-incubated for 15 mins to 24 hrs measured after 15 mins by phenol red-based stopped-flow CO2 hydrase assay
# Carbonic anhydrase 9 [5] = target: T2, Carbonic anhydrase 9; assay: Inhibition of human CA9 pre-incubated for 15 mins to 24 hrs measured after 15 mins by phenol red-based stopped-flow CO2 hydrase assay
# Carbonic anhydrase 1 [6] = target: T3, Carbonic anhydrase 1; assay: Inhibition of human CA1 pre-incubated for 15 mins to 24 hrs measured after 6 hrs by phenol red-based stopped-flow CO2 hydrase assay
# T3 sequence (P00915 whole entry): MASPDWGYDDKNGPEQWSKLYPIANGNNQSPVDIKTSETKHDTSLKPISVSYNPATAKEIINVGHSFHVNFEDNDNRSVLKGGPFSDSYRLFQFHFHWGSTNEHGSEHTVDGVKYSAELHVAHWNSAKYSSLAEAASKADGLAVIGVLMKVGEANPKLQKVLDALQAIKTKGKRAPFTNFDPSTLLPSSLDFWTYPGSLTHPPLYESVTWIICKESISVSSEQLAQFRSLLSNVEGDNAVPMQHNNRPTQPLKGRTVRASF
SMILES,Ki (Carbonic anhydrase 2 [1]),Ki (Carbonic anhydrase 9 [2]),further results
O=c1cccco1,> 100 µM,1.6 µM,
S=c1cccco1,> 100 µM,7.45 µM,
Cc1cc(C)oc(=S)c1,> 100 µM,9.51 µM,
O=C(O)/C=C/CCO,,,Ki (Carbonic anhydrase 1 [3]): 8.46 µM; Ki (Carbonic anhydrase 2 [4]): > 100 µM; Ki (Carbonic anhydrase 9 [5]): 1150 nM
CC1CCC(=O)O1 (stereo unspecified),> 100 µM,0.92 µM,
COC1=CC(=O)OC1,> 100 µM,3.38 µM,
Cc1cc(C)oc(=O)c1,> 100 µM,,
O=C1CCCCO1,> 100 µM,3.66 µM,
O=C1C=CCCO1,> 100 µM,1.35 µM,
O=C1C=CCO1 [FURAN-2(5H)-ONE],> 100 µM,,
O=C(O)/C=C/c1ccccc1O [O-COUMARIC ACID],,> 100 µM,Ki (Carbonic anhydrase 1 [6]): 3.4 µM
